Data as given in patent US4007165A (priority 1974, dated 1977).
Counter-ions that a name gives are not always drawn. Like-named read-outs stand apart in the source and are kept apart here.

Assays:
[1] = commercial compound, background statement; cited from earlier work
[2] = cited from earlier work
[3] = Thermal decomposition half-life; format: physicochemical
Procedure: (§1) It produces 179 cc. of gas per gram at 110° C. The following half-life data have been determined:
The following half-life data have been determined by gas evolution technique using trichlorobenzene as the solvent: […]

[4] = Curing of unsaturated polyester-styrene resin
Procedure: An unsaturated polyester resin was made by reacting maleic anhydride (1.0 mole), phthalic anhydride (1.0 mole), and propylene glycol (2.2 moles) until an acid number of 45-50 was obtained. To this was added hydroquinone at a 0.013% concentration. Seven parts of this unsaturated polyester was diluted with 3 parts of monomeric styrene to obtain a homogeneous blend having a viscosity of 13.08 poise and a specific gravity of 1.14.
To 20 grams of this blend was added 0.128 gram of alpha-(tert.-butylazo)isobutyronitrile and the resultant composition placed in a constant temperature bath at 212° F. (100° C.). […] At 180° F. (82.2° C.), a peak exotherm of 381° F. (193.9° C.) was obtained in 13.3 minutes. The resultant cured materials were very hard.
The procedure of Example III was used at 212° F. (100° C.) and 240° F. (115.6° C.) where peak exotherms of 414° F. (212.2° C.) and 440° F. (226.7° C.) were obtained after 10.0 and 5.3 minutes respectively using 0.2 gram of the 1-tert.-butylazo-1-cyanocyclohexane. The resultant cured resins were very hard.
The curing procedure and resin are described in Example III.

[5] = Preliminary toxicological studies / toxicity
Solubility = format: physicochemical; details: petroleum and other organic solvents
[6] = High pressure polymerization of ethylene
[7] = Gas volume generated on thermal decomposition; format: physicochemical; details: 130° C.
Procedure: as §1
It produces 146 cc. of gas per gram at 130° C.

[8] = Emulsion polymerization of ethyl acrylate; details: 3.65 × 10^-^4 moles initiator, 85°-87° C.
Procedure: An emulsion containing 50 g. of deionized water, 40 g. ethyl acrylate, 4.8 g. Triton X-200, Rohm & Haas anionic surfactant, and 0.0769 g. (3.65 × 10^-^4 moles) α-tert-butylazo-α-methyl-γ-carboxy-butyronitrile (from Example X) was prepared. Approximately 25 g. of the emulsion was placed in a 250 ml. 4-neck round bottom flask equipped with a mechanical stirrer, thermometer and condenser. Nitrogen was passed through the system and the contents of the flask were heated to the reflux temperature of 82° C. When the temperature rose to 90° C., indicating polymerization was occurring, the balance of the emulsion was slowly added from a self-venting addition funnel, maintaining the temperature at 85°-87° C. At the end of the addition the temperature was raised to 95° C. for 5 minutes, a very small amount of hydroquinone added and the reaction cooled to room temperature. The total reaction times was 11/3 hours. The final pH was 3.6. A 5 g. aliquot was weighed into a tared dish and the monomers and water evaporated and the conversion of monomer to polymer was determined to be 94%.
A similar polymerization was run under the same conditions using 3.65 × 10^-^4 moles of the sodium salt of α-tert-butylazo-α-methyl-γ-carboxybutyronitrile as the initiator. The conversion was 92.3% and the final pH was 6.6.

[9] = onset
[10] = 180° F. (82.2° C.), 0.128 gram in 20 grams blend
[11] = bath 212° F. (100° C.), 0.128 gram in 20 grams blend
[12] = 180° F. (82.2° C.), 1.0 weight per cent
[13] = 212° F. (100° C.), 1.0 weight per cent

CC(C)(C#N)N=NC(C)(C)C#N [2, 2'-AZOBISISOBUTYRONITRILE]
toxicity [1]: toxic solid | solubility ([2]; common organic solvents: aromatic hydrocarbons, dioxane, alcohol, ether, carbon tetrachloride): very low or limited solubility | solubility ([2]; petroleum hydrocarbon solvents): insoluble

CC(C)(C)N=NC(C)(C)C#N [Example I, Alpha-(tert.-butylazo)isobutyronitrile]
t 1/2 ([3]; 70° C.): 40.5 h | hardness of cured resin [4]: very hard | peak exotherm [4, 10]: 381 ° F. | time to peak exotherm [4, 10]: 13.3 min | quality of cure ([4]; 212° F. (100° C.)): excellent cure | peak exotherm [4, 11]: 424 ° F. | time to peak exotherm [4, 11]: 4.9 min | toxicity relative to IXA and its decomposition residue [5]: significantly less toxic | solubility (Solubility): soluble in petroleum solvents | initiator performance [6]: especially advantageous initiators

CC(C)(C)N=NC1(C#N)CCCCC1 [Example IV, 1-tert.-butylazo-1-cyanocyclohexane]
t 1/2 ([3]; 96.3° C.): 10.0 h | t 1/2 ([3]; 100° C.): 6.7 h | t 1/2 ([3]; 110° C.): 2.3 h | t 1/2 ([3]; 120° C.): .75 h | gas produced [7]: 146 cc. of gas per gram | hardness of cured resin [4]: very hard | peak exotherm ([4]; 212° F. (100° C.), 0.2 gram): 414 ° F. | time to peak exotherm ([4]; 212° F. (100° C.), 0.2 gram): 10.0 min | peak exotherm ([4]; 240° F. (115.6° C.), 0.2 gram): 440 ° F. | time to peak exotherm ([4]; 240° F. (115.6° C.), 0.2 gram): 5.3 min | toxicity relative to IXA and its decomposition residue [5]: significantly less toxic | initiator performance [6]: especially advantageous initiators

CC(C)(C)N=NC(C)(C#N)CCC(=O)O (stereo not drawn) [Example X, alpha-tert.-butylazo-alpha-methyl-gammacarboxybutyronitrile]
hardness of cured resin [4]: very hard | peak exotherm [4, 12]: 410 ° F. | time to peak exotherm [4, 12]: 8.5 min | peak exotherm [4, 13]: 422 ° F. | time to peak exotherm [4, 13]: 3.8 min | conversion of monomer to polymer [8]: 94% | temperature at which it begins to evolve nitrogen [9]: 85 °C

CC(C)(C)N=NC(C)(C#N)CCC(=O)O (stereo not drawn) [sodium salt of α-tert-butylazo-α-methyl-γ-carboxybutyronitrile]
conversion of monomer to polymer [8]: 92.3%
